Assay: Antagonist activity at CCR5 receptor expressed in HeLa-P4 cells co-expressing CD4 assessed as inhibition of infusion to HIV gp120 expressed in CHO-tat10 cells after 20 hrs by cell-cell fusion assay

SMILES	IC50
Cc1nc(C(C)C)n([C@H]2C[C@H]3CC[C@@H](C2)N3CC[C@H](NC(=O)C2CCC(F)(F)CC2)c2ccccc2)n1 [endo-4,4-difluoro-N-((S)-3-(3-(5-isopropyl-3-methyl-1H-1,2,4-triazol-1-yl)-8-azabicyclo[3.2.1]octan-8-yl)-1-phenylpropyl)cyclohexanecarboxamide]	1400 pM
CC(=O)N[C@@H](CCN1[C@@H]2CC[C@H]1C[C@@H](n1c(C)nc3c1CN(C)CC3)C2)c1ccccc1 [endo-N-((S)-3-(3-(2,5-dimethyl-4,5,6,7-tetrahydro-3H-imidazo[4,5-c]pyridin-3-yl)-8-azabicyclo[3.2.1]octan-8-yl)-1-phenylpropyl)acetamide]	5000 pM
CC(=O)N[C@@H](CCN1[C@@H]2CC[C@H]1C[C@@H](n1c(C)nc3ccccc31)C2)c1ccccc1 [endo-N-((S)-3-(3-(2-methyl-1H-benzo[d]imidazol-1-yl)-8-azabicyclo[3.2.1]octan-8-yl)-1-phenylpropyl)acetamide]	500 pM
CC(=O)N[C@@H](CCN1[C@@H]2CC[C@H]1C[C@@H](n1c(C)nc3c1CNCC3)C2)c1ccccc1 [endo-N-((S)-3-(3-(2-methyl-4,5,6,7-tetrahydro-3H-imidazo[4,5-c]pyridin-3-yl)-8-azabicyclo[3.2.1]octan-8-yl)-1-phenylpropyl)acetamide]	9000 pM
CC(=O)N[C@@H](CCN1[C@@H]2CC[C@H]1C[C@@H](n1c(C)nc3c1CN(S(C)(=O)=O)CC3)C2)c1ccccc1 [endo-N-((S)-3-(3-(2-methyl-5-(methylsulfonyl)-4,5,6,7-tetrahydro-3H-imidazo[4,5-c]pyridin-3-yl)-8-azabicyclo[3.2.1]octan-8-yl)-1-phenylpropyl)acetamide]	2000 pM
CCC(=O)N1CCc2nc(C)n([C@H]3C[C@H]4CC[C@@H](C3)N4CC[C@H](NC(C)=O)c3ccccc3)c2C1 [endo-N-((S)-3-(3-(2-methyl-5-propionyl-4,5,6,7-tetrahydro-3H-imidazo[4,5-c]pyridin-3-yl)-8-azabicyclo[3.2.1]octan-8-yl)-1-phenylpropyl)acetamide]	400 pM
CC(=O)N[C@@H](CCN1[C@@H]2CC[C@H]1C[C@@H](n1c(C)nc3c1CN(C(C)=O)CC3)C2)c1ccccc1 [endo-N-((S)-3-(3-(5-acetyl-2-methyl-4,5,6,7-tetrahydro-3H-imidazo[4,5-c]pyridin-3-yl)-8-azabicyclo[3.2.1]octan-8-yl)-1-phenylpropyl)acetamide]	400 pM
CC(=O)N[C@@H](CCN1[C@@H]2CC[C@H]1C[C@@H](n1c(C)nc3c1CN(Cc1ccccc1)CC3)C2)c1ccccc1 [endo-N-((S)-3-(3-(5-benzyl-2-methyl-4,5,6,7-tetrahydro-3H-imidazo[4,5-c]pyridin-3-yl)-8-azabicyclo[3.2.1]octan-8-yl)-1-phenylpropyl)acetamide]	29000 pM
CC(=O)N[C@@H](CCN1[C@@H]2CC[C@H]1C[C@@H](n1c(C)nc3c1CN(C(=O)C(C)C)CC3)C2)c1ccccc1 [endo-N-((S)-3-(3-(5-isobutyryl-2-methyl-4,5,6,7-tetrahydro-3H-imidazo[4,5-c]pyridin-3-yl)-8-azabicyclo[3.2.1]octan-8-yl)-1-phenylpropyl)acetamide]	400 pM
CC(=O)N[C@@H](CCN1[C@@H]2CC[C@H]1C[C@@H](n1c(C)nc3c1CN(C(C)C)CC3)C2)c1ccccc1 [endo-N-((S)-3-(3-(5-isopropyl-2-methyl-4,5,6,7-tetrahydro-3H-imidazo[4,5-c]pyridin-3-yl)-8-azabicyclo[3.2.1]octan-8-yl)-1-phenylpropyl)acetamide]	3000 pM
COC(=O)N[C@@H](CCN1[C@@H]2CC[C@H]1C[C@@H](n1c(C)nc3c1CN(C(=O)OC)CC3)C2)c1cccc(F)c1 [endo-methyl 3-(8-((S)-3-(3-fluorophenyl)-3-(methoxycarbonylamino)propyl)-8-azabicyclo[3.2.1]octan-3-yl)-2-methyl-6,7-dihydro-3H-imidazo[4,5-c]pyridine-5(4H)-carboxylate]	200 pM
COC(=O)N1CCc2nc(C)n([C@H]3C[C@H]4CC[C@@H](C3)N4CC[C@H](NC(C)=O)c3cccc(F)c3)c2C1 [endo-methyl 3-(8-((S)-3-acetamido-3-(3-fluorophenyl)propyl)-8-azabicyclo[3.2.1]octan-3-yl)-2-methyl-6,7-dihydro-3H-imidazo[4,5-c]pyridine-5(4H)-carboxylate]	100 pM
COC(=O)N1CCc2nc(C)n([C@H]3C[C@H]4CC[C@@H](C3)N4CC[C@H](NC(C)=O)c3ccccc3)c2C1 [endo-methyl 3-(8-((S)-3-acetamido-3-phenylpropyl)-8-azabicyclo[3.2.1]octan-3-yl)-2-methyl-6,7-dihydro-3H-imidazo[4,5-c]pyridine-5(4H)-carboxylate]	300 pM
COC(=O)N[C@@H](CCN1[C@@H]2CC[C@H]1C[C@@H](n1c(C)nc3c1CN(C(C)=O)CC3)C2)c1cccc(F)c1 [endo-methyl(S)-3-(3-(5-acetyl-2-methyl-4,5,6,7-tetrahydro-3H-imidazo[4,5-c]pyridin-3-yl)-8-azabicyclo[3.2.1]octan-8-yl)-1-(3-fluorophenyl)propylcarbamate]	200 pM
COC(=O)N[C@@H](CCN1[C@@H]2CC[C@H]1C[C@@H](n1c(C)nc3c1CN(C(C)=O)CC3)C2)c1ccccc1 [endo-methyl(S)-3-(3-(5-acetyl-2-methyl-4,5,6,7-tetrahydro-3H-imidazo[4,5-c]pyridin-3-yl)-8-azabicyclo[3.2.1]octan-8-yl)-1-phenylpropylcarbamate]	600 pM
